Measured values from ChEMBL document CHEMBL6178013, “Ferroptosis of Cancer Cells via Tubulin Degradation and Mitochondrial Dysfunction: A Novel Mechanism of Anticancer Effect for Small-Molecule Anion Transporters” (J Med Chem, 2025).
The source made the active and inactive calls. The rule behind the calls is not given here.

Key:
[1] = Cmax in male CD-1 mouse at 1 mg/kg, ip measured for 0.083 to 48 hrs by HPLC/MS/MS analysis; assay type: ADME, organism-based; conditions: in vivo, time 0.083-48 hrs
[2] = Toxicity in male Balb/C nude mouse xenografted with human HeLa cells assessed as abnormalities in liver at 10 to 20 mg/kg, ip administered on every 2 days measured after 18 days by H and E staining based analysis; assay type: organism-based; conditions: in vivo, 432 h, dose 10-20 mg/kg, time 18 day
Chloride [3] = experiment: Binding affinity to chloride anions assessed as chloride efflux in egg-yolk L-alpha-phosphatidylcholine liposome model harboring intravesicular NaCl/extravesicular NaNO3
HeLa [4] = experiment: Cytotoxicity against human HeLa cells assessed as decrease in cell viability at 0.01 to 10 uM pretreated with Fer-1 followed by compound addition by MTT assay; assay type: functional, cell-based; conditions: dose 0.01-10 µM
Chloride [5] = experiment: Binding affinity to chloride anions assessed as transport of chloride anions across bulky nitrobenzene membrane in U-shaped tube harboring NaCl in donor phase and NaNO3 in receiving phase at 1 mM measured for 12 hrs by chloride ion selective electrode technique
HeLa [6] = experiment: Induction of cell cycle arrest in human HeLa cells assessed as accumulation of cells at S phase at 1 uM incubated for 24 hrs by PI staining based flow cytometry relative to control; assay type: functional
[7] = target: Tubulin alpha (Homo sapiens) (UniProt P0DPH7+P68366+Q71U36+P68363+Q9BQE3+Q6PEY2+A6NHL2+Q9NY65); experiment: Induction of alpha-tubulin degradation in human HeLa cells incubated for 48 hrs by immunoblotting analysis; assay type: cell-based; conditions: dose 0.1-1 µM
HeLa [8] = experiment: Cytotoxicity against human HeLa cells assessed as decrease in ratio of green to red fluorescence at 0.1 to 1 uM incubated for 24 hrs by calcein-AM/7-AAD staining based analysis; assay type: functional, cell-based; conditions: dose 0.1-1 µM
Chloride [9] = experiment: Binding affinity to chloride anions assessed as chloride efflux in egg-yolk L-alpha-phosphatidylcholine liposome model measured per lipid in presence of intravesicular NaCl/extravesicular NaNO3 by chloride ion selective electrode technique
Chloride [10] = experiment: Binding affinity to chloride anions in human HeLa cells assessed as increase in chloride influx at 1 uM measured after 15 mins by inverted fluorescence microscopy; assay type: cell-based
HeLa [11] = experiment: Antitumor activity against human HeLa cells xenografted in male Balb/C nude mouse assessed as cell death at 10 to 20 mg/kg, ip administered on every 2 days measured after 18 days by TUNEL immunofluorescence analysis; assay type: functional, organism-based; conditions: dose 10-20 mg/kg, time 18.0 day
[12] = MRT (0 to infinity) in male CD-1 mouse at 1 mg/kg, ip measured for 0.083 to 48 hrs by HPLC/MS/MS analysis; assay type: ADME, organism-based; conditions: in vivo, time 0.083-48 hrs
Chloride [13] = experiment: Binding affinity to chloride anions in human HeLa cells assessed as increase in green fluorescence in cytoplasm at 5 uM incubated for 6 hrs by AO staining based analysis; assay type: cell-based
HeLa [14] = experiment: Induction of mitochondrial membrane permeability in human HeLa cells assessed as green fluorescence at 1 uM incubated for 24 hrs by JC-1 staining based analysis (reference value: 1.5 %); assay type: functional
Chloride [15] = experiment: Binding affinity to chloride anions assessed as chloride efflux in egg-yolk L-alpha-phosphatidylcholine liposome model harboring intravesicular KCl/extravesicular NaNO3
Chloride [16] = experiment: Binding affinity to chloride anions assessed as anionophoric activity in egg-yolk L-alpha-phosphatidylcholine liposome model measured per lipid by pyranine-based fluorescent assay
[17] = Drug concentration in brain of C57BL/6 mouse at 5 mg/kg, iv measured after 4 hrs by HPLC/MS/MS analysis; assay type: ADME, organism-based; conditions: read-out: Ct
HeLa [18] = experiment: Induction of beta III-tubulin degradation in human HeLa cells up to 10 uM preincubated with MG132 followed by compound addition measured after 24 hrs by immunoblotting analysis; assay type: cell-based
HeLa [19] = experiment: Induction of ferroptosis in human HeLa cells assessed as increase in PARP-1 cleavage at 0.1 to 1 uM incubated for 24 hrs by immunoblotting analysis; assay type: functional, cell-based; conditions: dose 0.1-1 µM
HeLa [20] = experiment: Induction of ferroptosis in human HeLa cells assessed as increase in caspase-3 activation at 0.1 to 1 uM incubated for 24 hrs by immunoblotting analysis; assay type: functional, cell-based; conditions: dose 0.1-1 µM
Chloride [21] = experiment: Binding affinity to chloride anions assessed as binding constant at 1:1 stoichiometry of compound and tetrabutylammonium chloride salt by 1H NMR spectroscopy
[22] = Half life in male CD-1 mouse at 1 mg/kg, iv measured for 0.083 to 48 hrs by HPLC/MS/MS analysis; assay type: ADME, organism-based; conditions: in vivo, time 0.083-48 hrs
Liposome = experiment: Disruption of egg-yolk L-alpha-phosphatidylcholine liposome model membrane assessed as calcein leakage by fluorescence based assay; assay type: subcellular
HeLa [23] = experiment: Effect on p53 pathway in human HeLa cells at 10 uM incubated for 48 hrs by KEGG analysis; assay type: functional, cell-based
Chloride [24] = experiment: Binding affinity to chloride anions in human HeLa cells assessed as chloride influx up to 5 uM incubated for 2 hrs by MQAE staining based analysis; assay type: cell-based
Chloride [25] = experiment: Binding affinity to chloride anions assessed as chloride efflux in egg-yolk L-alpha-phosphatidylcholine liposome model harboring intravesicular RbCl/extravesicular NaNO3
[26] = Drug concentration in plasma of C57BL/6 mouse at 5 mg/kg, iv measured after 4 hrs by HPLC/MS/MS analysis; assay type: ADME, organism-based
HeLa [27] = experiment: Induction of ferroptosis in human HeLa cells assessed as increase in Bax level at 0.1 to 1 uM incubated for 24 hrs by immunoblotting analysis; assay type: functional, cell-based; conditions: dose 0.1-1 µM
Chloride [28] = experiment: Binding affinity to chloride anions in human HeLa cells assessed as increase in chloride influx at 1 uM measured after 15 mins by flow cytometry; assay type: cell-based
HeLa [29] = experiment: Cytotoxicity against human HeLa cells assessed as decrease in cell viability at 0.01 to 10 uM pretreated with Nec-1 followed by compound addition by MTT assay; assay type: functional, cell-based; conditions: dose 0.01-10 µM
HeLa [30] = experiment: Induction of lipid peroxidation in human HeLa cells assessed as decrease in GSH level incubated for 12 hrs by absorbance based assay; assay type: functional, cell-based; conditions: dose 0.1-1 µM
HeLa [31] = experiment: Cytotoxicity against human HeLa cells assessed as decrease in cell viability cultured in chloride-free extracellular medium at 0.05 to 5 uM incubated for 12 hrs; assay type: functional, cell-based; conditions: dose 0.05-5 µM
HeLa [32] = experiment: Cytotoxicity against human HeLa cells assessed as decrease in cell viability at 0.01 to 10 uM pretreated with Z-VAD-FMK/Fer-1 followed by compound addition by MTT assay; assay type: functional, cell-based; conditions: dose 0.01-10 µM
HeLa [33] = experiment: Induction of cell cycle arrest in human HeLa cells assessed as accumulation of cells at S phase at 0.1 uM incubated for 24 hrs by PI staining based flow cytometry relative to control; assay type: functional
HeLa [34] = experiment: Induction of mitochondrial membrane permeability in human HeLa cells at 0.625 to 5 uM incubated for 24 hrs by JC-1 staining based analysis; assay type: functional, cell-based; conditions: dose 0.625-5 µM
HeLa [35] = experiment: Antitumor activity against human HeLa cells xenografted in male Balb/C nude mouse assessed as reduction in tumor weight at 20 mg/kg, ip administered on every 2 days measured after 18 days relative to control; assay type: functional; design: scale not given: the % may be the effect or the level left; conditions: time 18 day
HepG2 = experiment: Cytotoxicity against human HepG2 cells incubated for 48 hrs by MTT assay; assay type: functional, cell-based; conditions: HepG2, 48 h

SMILES: Fc1cc(-c2nc3c(C(F)(F)F)cc(C(F)(F)F)cc3[nH]2)cc(-c2nc3c(C(F)(F)F)cc(C(F)(F)F)cc3[nH]2)c1
- Cmax [1]: 270 ng/mL
- Activity [2]: Non-toxic
- Activity (Chloride [3]): Active
- Activity (HeLa [4]): inactive
- Activity (Chloride [5]): Active
- Activity (HeLa [6]): 48%
- Activity [7]: Dose-dependent-effect
- Activity (HeLa [8]): Active
- EC50 (Chloride [9]): 0.64 mol%
- Activity (Chloride [10]): inactive
- Activity (HeLa [11]): Active
- MRT inf [12]: 14.8 h
- Activity (Chloride [13]): Active; The Result Indicates That Compound Basify Acidic Organelles
- Activity (HeLa [14]): 66.8%
- Activity (Chloride [15]): Active
- EC50 (Chloride [16]): 4.16 10^-2mol%
- concentration at 4 h [17]: 1.3 µM
- Activity (HeLa [18]): inactive
- Activity (HeLa [19]): Active
- Activity (HeLa [20]): Active
- K (Chloride [21]): 5250 M⁻¹
- half-life [22]: 5.11 h
- Activity (Liposome): inactive
- Activity (HeLa [23]): Active
- Activity (Chloride [24]): Active
- Activity (Chloride [25]): Active
- concentration at 4 h [26]: 99.2 µM
- Activity (HeLa [27]): Active
- Activity (Chloride [28]): inactive
- Activity (HeLa [29]): Active
- Activity (HeLa [30]): Dose-dependent-effect
- Activity (HeLa [31]): inactive
- Activity (HeLa [32]): Not active; Z-Vad-Fmk/Fer-1 Rescued Cells In Dose-Dependent Manner
- Activity (HeLa [33]): 22%
- Activity (HeLa [34]): Active
- Activity (HeLa [35]): 69%
- IC50 (HepG2): 2470 nM
